In patent EP3478687B1 (Daewoong Pharmaceutical Co., Ltd., priority 2016, dated 2018):

Key:
[1] = biological target: T1, Recombinant purified human JAK3 (Homo sapiens, UniProt P52333); assay: JAK3 kinase inhibitory activity, ADP-Glo kinase assay (Promega V9441); assay type: biochemical; conditions: ATP 5 uM, 4 ng JAK3 per reaction, 1 hour 30 °C, chemiluminescence
T1 construct: purchased Promega V9441
T1 sequence (P52333 1-1124): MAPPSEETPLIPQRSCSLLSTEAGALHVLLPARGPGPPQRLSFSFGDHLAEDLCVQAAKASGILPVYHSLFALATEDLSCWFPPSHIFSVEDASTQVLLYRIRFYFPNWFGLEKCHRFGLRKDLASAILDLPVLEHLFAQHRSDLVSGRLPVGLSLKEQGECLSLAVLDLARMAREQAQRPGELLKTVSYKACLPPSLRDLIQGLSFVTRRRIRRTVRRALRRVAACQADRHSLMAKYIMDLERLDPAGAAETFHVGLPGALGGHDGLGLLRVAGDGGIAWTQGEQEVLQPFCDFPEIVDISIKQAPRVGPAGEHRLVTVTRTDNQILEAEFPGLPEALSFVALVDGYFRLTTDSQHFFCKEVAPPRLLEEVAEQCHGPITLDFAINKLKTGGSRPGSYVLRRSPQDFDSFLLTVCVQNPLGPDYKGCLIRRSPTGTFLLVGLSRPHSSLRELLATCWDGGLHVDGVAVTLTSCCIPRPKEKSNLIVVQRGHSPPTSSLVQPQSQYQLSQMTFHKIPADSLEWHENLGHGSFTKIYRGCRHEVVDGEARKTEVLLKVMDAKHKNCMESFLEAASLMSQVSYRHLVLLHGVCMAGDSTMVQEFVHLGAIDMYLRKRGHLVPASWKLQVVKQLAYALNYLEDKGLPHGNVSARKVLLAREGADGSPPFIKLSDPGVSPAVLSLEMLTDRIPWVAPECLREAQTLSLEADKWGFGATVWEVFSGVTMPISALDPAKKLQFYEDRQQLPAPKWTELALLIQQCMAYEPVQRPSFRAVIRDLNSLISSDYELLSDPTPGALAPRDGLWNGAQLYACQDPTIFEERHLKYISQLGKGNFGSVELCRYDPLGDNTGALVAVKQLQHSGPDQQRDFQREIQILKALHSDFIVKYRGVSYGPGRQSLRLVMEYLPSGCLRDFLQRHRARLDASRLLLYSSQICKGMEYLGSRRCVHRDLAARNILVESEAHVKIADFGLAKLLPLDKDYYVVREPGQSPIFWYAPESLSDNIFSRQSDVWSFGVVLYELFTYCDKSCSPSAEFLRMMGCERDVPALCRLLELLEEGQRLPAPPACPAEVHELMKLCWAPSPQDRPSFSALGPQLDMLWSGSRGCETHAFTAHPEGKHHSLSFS
Outline: (§1)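 Recombinant human kinases in Tris pH 7.5 buffer with MgCl2, BSA and DTT (MnCl2 added for BTK), 4 ng JAK3 or 8 ng BTK per reaction. Poly(Glu4,Tyr1) 0.2 µg/µL with 5 µM (JAK3) or 10 µM (BTK) ATP, 1% DMSO, 1 h at 30 °C. ADP-Glo luminescence used to derive IC50.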

[2] = biological target: T2, Recombinant purified human BTK (Homo sapiens, UniProt Q06187); assay: BTK kinase inhibitory activity, ADP-Glo kinase assay (Promega V9071); assay type: biochemical; conditions: ATP 10 uM, 8 ng BTK per reaction, 1 hour 30 °C, chemiluminescence
T2 construct: purchased Promega V9071
Outline: as §1

T2 sequence (Q06187 whole entry): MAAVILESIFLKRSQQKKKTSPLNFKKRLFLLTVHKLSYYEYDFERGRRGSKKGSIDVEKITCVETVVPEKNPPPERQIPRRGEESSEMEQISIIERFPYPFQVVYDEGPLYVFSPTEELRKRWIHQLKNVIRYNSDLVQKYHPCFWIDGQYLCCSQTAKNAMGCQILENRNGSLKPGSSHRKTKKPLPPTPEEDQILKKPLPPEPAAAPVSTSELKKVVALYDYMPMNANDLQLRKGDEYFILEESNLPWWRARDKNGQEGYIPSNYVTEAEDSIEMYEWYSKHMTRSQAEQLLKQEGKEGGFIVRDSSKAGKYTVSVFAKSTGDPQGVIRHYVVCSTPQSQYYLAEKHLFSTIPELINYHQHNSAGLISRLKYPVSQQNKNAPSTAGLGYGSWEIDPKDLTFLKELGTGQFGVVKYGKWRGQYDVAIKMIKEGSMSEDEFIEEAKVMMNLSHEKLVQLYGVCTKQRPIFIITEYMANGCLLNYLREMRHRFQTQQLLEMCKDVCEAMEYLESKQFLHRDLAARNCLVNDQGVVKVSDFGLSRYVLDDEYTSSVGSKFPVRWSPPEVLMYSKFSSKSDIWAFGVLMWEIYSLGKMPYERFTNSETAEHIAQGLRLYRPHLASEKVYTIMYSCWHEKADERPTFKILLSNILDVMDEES

| SMILES | IC50 [1] | IC50 [2] |
| --- | --- | --- |
| N#CCC(=O)N1CCC[C@@H](Nc2nc(Nc3cnn(C4CC4)c3)nc3[nH]nc(Cl)c23)C1 [Example 139, (R)-3-(3-((3-chloro-6-((1-cyclopropyl-1H-pyrazol-4-yl)amino)-1H-pyrazolo[3,4-d]pyrimidin-4-yl)amino)piperidin-1-yl)-3-oxopropanenitrile] | > 80 nM | 143 nM |
| C/C=C/C(=O)N1CCC[C@@H](Nc2nc(Nc3ccc(N4CCN(C)CC4)cc3)nc3[nH]cc(Cl)c23)C1 [Example 140, (R,E)-1-(3-((5-chloro-2-((4-(4-methylpiperazin-1-yl)phenyl)amino)-7H-pyrrolo [2,3-d]pyrimidin-4-yl)amino)piperidin-1-yl)but-2-en-1-one] | > 80 nM | 986 nM |
| CN1CCN(c2ccc(Nc3nc(N[C@@H]4CCCN(C(=O)C#CC5CC5)C4)c4c(Cl)c[nH]c4n3)cc2)CC1 [Example 141, (R)-1-(3-((5-chloro-2-((4-(4-methylpiperazin-1-yl)phenyl)amino)-7H-pyrrolo [2,3-d]pyrimidin-4-yl)amino)piperidin-1-yl)-3-cyclopropylprop-2-yn-1-one] | 38.5 nM | 306 nM |
| CCC#CC(=O)N1CCC[C@@H](Nc2nc(Nc3ccc(N4CCN(C)CC4)cc3)nc3[nH]cc(Cl)c23)C1 [Example 142, (R)-1-(3-((5-chloro-2-((4-(4-methylpiperazin-1-yl)phenyl)amino)-7H-pyrrolo[2,3-d]pyrimidin-4-yl)amino)piperidin-1-yl)pent-2-yn-1-one] | 22.4 nM | 210 nM |
| C=CC(=O)N1CCC[C@@H](Nc2nc(Nc3cnn(CCN(CC)CC)c3)nc3[nH]ncc23)C1 [Example 145, (R)-1-(3-((6-((1-(2-(diethylamino)ethyl)-1H-pyrazol-4-yl)amino)-1H-pyrazolo[3,4-d]pyrimidin-4-yl)amino)piperidin-1-yl)prop-2-en-1-one] | 1.7 nM | 1.4 nM |
| C=CC(=O)N1CCC[C@@H](Nc2nc(Nc3cnoc3)nc3[nH]ncc23)C1 [Example 146, (R)-1-(3-((6-(isoxazol-4-ylamino)-1H-pyrazolo[3,4-d]pyrimidin-4-yl)amino)piperidin-1-yl)prop-2-en-1-one] | 7.4 nM | 1.4 nM |
| C=CC(=O)N1CCC[C@@H](Oc2nc(Nc3cnn(CC)c3)nc3[nH]nc(Cl)c23)C1 [Example 147] | 1.4 nM | 2.1 nM |
| C=CC(=O)N1CCC[C@@H](Oc2nc(Nc3ccc(N4CCOCC4)cc3)nc3[nH]ccc23)C1 [Example 152, (R)-1-(3-((2-((4-morpholinophenyl)amino)-7H-pyrrolo[2,3-d]pyrimidin-4-yl)oay)piperidin-1-yl)prop-2-en-1-one] | 2 nM | 4.5 nM |
| C=CC(=O)N1CCC[C@@H](Oc2nc(Nc3cnn(C4CC4)c3)nc3[nH]nc(Cl)c23)C1 [Example 153] | 1.6 nM | 2.2 nM |
| N#C/C(=C\C1CC1)C(=O)N1CCC[C@@H](Oc2nc(Nc3cnn(C4CC4)c3)nc3[nH]nc(Cl)c23)C1 [Example 154, (R,E)-2-(3-((3-chloro-6-((1-cyclopropyl-1H-pyrazol-4-yl)amino)-1H-pyrazolo[3,4-d]pyrimidin-4-yl)oxy)piperidine-1-carbonyl)-3-cyclopropylacrylonitrile] | 54.2 nM | 2.5 nM |
| CCn1cc(Nc2nc(O[C@@H]3CCCN(C(=O)/C(C#N)=C/C4CC4)C3)c3c(Cl)n[nH]c3n2)cn1 [Example 155, (R,E)-2-(3-((3-chloro-6-((1-ethyl-1H-pyrazol-4-yl)amino)-1H-pyrazolo[3,4-d]pyrimidin-4-yl)oxy)piperidine-1-carbonyl)-3-cyclopropylacrylonitrile] | 53.7 nM | 2.2 nM |
| CC(C)/C=C(\C#N)C(=O)N1CCC[C@@H](Oc2nc(Nc3cnn(C4CC4)c3)nc3[nH]nc(Cl)c23)C1 [Example 158, (R,E)-2-(3-((3-chloro-6-((1-cyclopropyl-1H-pyrazol-4-yl)amino)-1H-pyrazolo[3,4-d]pyrimidin-4-yl)oxy)piperidine-1-carbonyl)-4-methylpent-2-enenitrile] | 2.9 nM | 1.2 nM |
| C=CC(=O)N1CC[C@@H](C)[C@@H](N(C)c2nc(Nc3cnn(CC)c3)nc3[nH]nc(Cl)c23)C1 [Example 159] | 27.1 nM | 4.5 nM |
| CCn1cc(Nc2nc(N[C@H]3CN(C(=O)/C(C#N)=C/C(C)C)CC[C@H]3F)c3c(Cl)n[nH]c3n2)cn1 [Example 160, (E)-2-((3S,4R)-3-((3-chloro-6-((1-ethyl-1H-pyrazol-4-yl)amino)-1H-pyrazolo[3,4-d]pyrimidin-4-yl)amino)-4-fluoropiperidine-1-carbonyl)-4-methylpent-2-enenitrile] | 1.5 nM | 3.4 nM |

The remaining compounds from weak to strong by IC50 [1], led by results:

| IC50 [1] | IC50 [2] | SMILES |
| --- | --- | --- |
| 1.4 nM | 1.5 nM | C=CC(=O)N1CCC[C@@H](Nc2nc(Nc3cnn(CC(F)(F)F)c3)nc3[nH]ncc23)C1 [Example 144, (R)-1-(3-((6-((1-(2,2,2-trifluoroethyl)-1H-pyrazol-4-yl)amino)-1H-pyrazolo[3,4-d]pyrimidin-4-yl)amino)piperidin-1-yl)prop-2-en-1-one] |
| 0.6 nM | 1.4 nM | CCn1cc(Nc2nc(O[C@@H]3CCCN(C(=O)/C(C#N)=C/C4CC4)C3)c3c(C#N)c[nH]c3n2)cn1 [Example 157, (R,E)-4-((1-(2-cyano-3-cyclopropylacryloyl)piperidin-3-yl)oxy)-2-((1-ethyl-1H-pyrazol-4-yl)amino)-7H-pyrrolo[2,3-d]pyrimidine-5-carbonitrile] |
| 0.5 nM | 1.1 nM | CCn1cc(Nc2nc(O[C@@H]3CCCN(C(=O)/C(C#N)=C/C(C)C)C3)c3c(C#N)c[nH]c3n2)cn1 [Example 156, (R,E)-4-((1-(2-cyano-4-methylpent-2-enoyl)piperidin-3-yl)oxy)-2-((1-ethyl-1H-pyrazol-4-yl)amino)-7H-pyrrolo[2,3-d]pyrimidine-5-carbonitrile] |
| 0.4 nM | 3 nM | C=CC(=O)N1CCC[C@@H](Oc2nc(Nc3cnn(CC)c3)nc3[nH]ccc23)C1 [Example 151, (R)-1-(3-((2-((1-ethyl-1H-pyrazol-4-yl)amino)-7H-pyrrolo[2,3-d]pyrimidin-4-yl)oay)piperidin-1-yl)prop-2-en-1-one] |
| 0.3 nM | 1.6 nM | C=CC(=O)N1CCC[C@@H](Oc2nc(Nc3cnn(C4CC4)c3)nc3[nH]cc(C#N)c23)C1 [Example 148, (R)-4-((1-acryloylpiperidin-3-yl)oxy)-2-((1-cyclopropyl-1H-pyrazol-4-yl)amino)-7H-pyrrolo[2,3-d]pyrimidine-5-carbonitrile] |
| 0.3 nM | 1.6 nM | C=CC(=O)N1CCC[C@@H](Oc2nc(Nc3cnn(CC)c3)nc3[nH]cc(C#N)c23)C1 [Example 150, (R)-4-((1-acryloylpiperidin-3-yl)oxy)-2-((1-ethyl-1H-pyrazol-4-yl)amino)-7H-pyrrolo[2,3-d]pyrimidine-5-carbonitrile] |
| 0.2 nM | 1.6 nM | C=CC(=O)N1CCC[C@@H](Oc2nc(Nc3cnn(CC(F)F)c3)nc3[nH]cc(C#N)c23)C1 [Example 149, (R)-4-((1-acryloylpiperidin-3-yl)oxy)-2-((1-(2,2-difluoroethyl)-1H-pyrazol-4-yl)amino)-7H-pyrrolo[2,3-d]pyrimidine-5-carbonitrile] |
